According to US20030040438A1, “Method for increasing the yield of beans” (priority 2000, published 2003):

Tested on: soybean seeds (Variety: Halosoy)
Experiment: Test of Yield Increasing Effect on Soybeans (seed drenching)
Format: in vivo
Details: seeds drenched 12 hours; for Productive grain increasing index: average number of productive grains per plant in non-treated section = 100%; for Yield increasing index per plant: harvest 110 days after sowing, yield (g) in non-treated section = 100%; for One grain weight: weight per selected bean after threshing and drying, non-treated 0.22 g

CCC1(C(=O)NC(C)c2ccc(Cl)cc2)C(C)C1(Cl)Cl [Carpropamid, N-(R)-[1-(4-chloro-phenyl)-ethyl]-2,2-dichloro-1-ethyl-3t-methyl-1r-cyclopropanecarboxamide]
Productive grain increasing index (1 ppm): 127.1% | Yield increasing index per plant (1 ppm): 131.1% | One grain weight (1 ppm): 0.23 g | Productive grain increasing index (10 ppm): 163.5% | Yield increasing index per plant (10 ppm): 173.1% | One grain weight (10 ppm): 0.23 g | Productive grain increasing index (100 ppm): 163.4% | Yield increasing index per plant (100 ppm): 169.1% | One grain weight (100 ppm): 0.23 g | Productive grain increasing index (1000 ppm): 126.8% | Yield increasing index per plant (1000 ppm): 132.2% | One grain weight (1000 ppm): 0.23 g
